Data on one substance can be found in patent publication US12285462B2, “pH-triggered membrane peptide-mediated epitope tethering at cell surfaces” (UNIVERSITY OF RHODE ISLAND BOARD OF TRUSTEES, priority 2019, dated 2025).

Primed or numbered codes have the meaning given here. Where no end group is shown, it is not given here. Side-chain parts run from the residue outwards. The star is where a group is joined. Dnp = O=[N+]([O-])c1ccc(*)c([N+](=O)[O-])c1; PEG12′ = not defined here

This experiment relates to HeLa cells (tumor spheroids). Kind of experiment: Complement-mediated killing of tumor spheroids (anti-DNP antibody or human IgM, human serum with active complement, PI staining). Format: cell-based. The conditions noted are these: 5 µM construct 1 hour PBS pH6.5, anti-DNP antibody or human IgM 1 hr pH7.4, human serum with active complement and PI, FIG. 8, imaged 2 hours after treatment. As for the experimental part:
The key for induction of immunological response is a proper positioning of epitope at the surface of tumor cells, which was verified on 3-D tumor cancer cell culture (tumor spheroids). Briefly, a 2% agarose solution was made by dissolving in pH 7.4 PBS. 150 μL of the solution was pipetted into each well of a 48-well flat bottom tissue culture plate. After the agarose gel sufficiently settled (˜1 h), 150 μL of DMEM supplemented with 10% FBS and ciprofloxacin-HCl was added to each well. The covered plate was left in a humidified atmosphere at 37° C. and 5% CO2 in cell culture incubator for 24 h. On the next day, the excess medium was removed from the agarose layer. HeLa cells (10,000 cells) in 200 μL of DMEM containing 2% matrigel were added into each well and incubated for 3-4 days to allow the formation of spheroids. Matrigel was dissolved on ice overnight and added in ice cold DMEM at a concentration of 2.5% (to obtain a final concentration of 2% once added to the wells). Then the mixture was heated to 37° C. before being combined with the cells. […] After treatment, the spheroids were washed several times in 1 mL of PBS. Next, spheroids were treated with anti-DNP antibody labeled with 647 nm fluorescent dye at pH 7.4 followed by washing. Spheroids were also stained with DAPI to mark cell nucleus. […]

“DNP-PEG12-pHLIP®: DNP-PEG12-NHS conjugated with single Lys residue at N-terminal of pHLIP® peptide Ac-AKDDQNPWRAYLDLLFPTDTLLLDLLWA (SEQ ID NO: 510) (Ac-AK([PEG12′-Dnp])DDQNPWRAYLDLLFPTDTLLLDLLWA)”: the “PI staining (red color) of dead or dying cells after complement-mediated attack” value was “plasma membrane of cells was comrpomized by complement-mediated attack and that the cells were dying”.
